Data as given in the supplement of paper PMC8253809.

How the values were obtained:
[1] = system: iAstro (astrocyte control); experiment: EC50 (inflection of fitted growth-inhibition curve) (log10 M)
Procedure, shortened: (§1)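 A pin tool was used to add a 10-point threefold dilution series (mean top concentration 35 μM), in triplicate, to patient-derived pHGG/DIPG cell lines and astrocyte controls seeded on 384-well plates coated with 1% Geltrex. After 7 days at 37 °C and 5% CO2 (3 days for iAstro), CellTiter-Glo luminescence was log2-transformed, normalised on each plate to % activity relative to negative (solvent) and positive control wells, and pooled. EC50 and maximal response (yFin) were read from the three- or four-parameter log-logistic fit with the lowest AICc.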

[2] = system: HGGX2 (paediatric high-grade glioma line); experiment: as above
Procedure, shortened: as §1

[3] = system: SUDIPGXIX (diffuse intrinsic pontine glioma line); experiment: as above
Procedure, shortened: as §1

[4] = system: DIPGX9 (diffuse intrinsic pontine glioma line); experiment: as above
Procedure, shortened: as §1

[5] = system: SUDIPGXXI (diffuse intrinsic pontine glioma line); experiment: as above
Procedure, shortened: as §1

[6] = system: HABS (astrocyte control); experiment: as above
Procedure, shortened: as §1

[7] = system: HGGX39 (paediatric high-grade glioma line); experiment: as above
Procedure, shortened: as §1

[8] = system: SUDIPGVI (diffuse intrinsic pontine glioma line); experiment: as above
Procedure, shortened: as §1

[9] = system: DIPGX29 (H3.3 K27M diffuse intrinsic pontine glioma line); experiment: as above
Procedure, shortened: as §1

[10] = system: DIPGX37 (H3.3 K27M diffuse intrinsic pontine glioma line); experiment: as above
Procedure, shortened: as §1

[11] = system: SUDIPGIV (diffuse intrinsic pontine glioma line); experiment: as above
Procedure, shortened: as §1

[12] = system: iAstro; experiment: maximal growth inhibition (yFin) relative to DMSO / staurosporine; higher = more efficacious
Procedure, shortened: as §1

[13] = system: HGGX2; experiment: as above
Procedure, shortened: as §1

[14] = system: SUDIPGXIX; experiment: as above
Procedure, shortened: as §1

[15] = system: DIPGX9; experiment: as above
Procedure, shortened: as §1

[16] = system: SUDIPGXXI; experiment: as above
Procedure, shortened: as §1

[17] = system: HABS; experiment: as above
Procedure, shortened: as §1

[18] = system: HGGX39; experiment: as above
Procedure, shortened: as §1

[19] = system: SUDIPGVI; experiment: as above
Procedure, shortened: as §1

[20] = system: DIPGX29; experiment: as above
Procedure, shortened: as §1

[21] = system: DIPGX37; experiment: as above
Procedure, shortened: as §1

[22] = system: SUDIPGIV; experiment: as above
Procedure, shortened: as §1

[23] = system: iAstro; experiment: area under dose-response curve of % growth inhibition (log2 RLU vs DMSO / staurosporine), 1e-11 to 1e-4 M (% x log10 M); higher = more growth inhibition
Procedure, shortened: (§2)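 A 10-point threefold dilution series, mean top concentration 35 μM, was applied in triplicate to patient-derived pHGG/DIPG lines and astrocytes on 1% Geltrex-coated 384-well plates for 7 days (3 days for iAstro) at 37 °C, 5% CO2. Per-plate % activity between solvent and positive controls was calculated from log2-transformed CellTiter-Glo luminescence. Area under the curve followed from the trapezoid rule on a log-logistic fit, or on a smoothing spline when the sigmoid fit failed.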

[24] = system: HGGX2; experiment: as above
Procedure, shortened: as §2

[25] = system: SUDIPGXIX; experiment: as above
Procedure, shortened: as §2

[26] = system: DIPGX9; experiment: as above
Procedure, shortened: as §2

[27] = system: SUDIPGXXI; experiment: as above
Procedure, shortened: as §2

[28] = system: HABS; experiment: as above
Procedure, shortened: as §2

[29] = system: HGGX42 (H3.3 G34R paediatric high-grade glioma line); experiment: as above
Procedure, shortened: as §2

[30] = system: HGGX39; experiment: as above
Procedure, shortened: as §2

[31] = system: DIPGX7 (H3.3 K27M diffuse intrinsic pontine glioma line); experiment: as above
Procedure, shortened: as §2

[32] = system: HGGX6 (H3.3 G34R paediatric high-grade glioma line); experiment: as above
Procedure, shortened: as §2

[33] = system: SUDIPGVI; experiment: as above
Procedure, shortened: as §2

[34] = system: DIPGX29; experiment: as above
Procedure, shortened: as §2

[35] = system: DIPGX37; experiment: as above
Procedure, shortened: as §2

[36] = system: SUDIPGXIII (diffuse intrinsic pontine glioma line); experiment: as above
Procedure, shortened: as §2

[37] = system: SUDIPGIV; experiment: as above
Procedure, shortened: as §2

[38] = system: SUDIPGXVII (diffuse intrinsic pontine glioma line); experiment: as above
Procedure, shortened: as §2

[39] = system: HGGX42; experiment: EC50 (inflection of fitted growth-inhibition curve) (log10 M)
Procedure, shortened: as §1

[40] = system: SUDIPGXIII; experiment: as above
Procedure, shortened: as §1

[41] = system: SUDIPGXVII; experiment: as above
Procedure, shortened: as §1

[42] = system: HGGX42; experiment: maximal growth inhibition (yFin) relative to DMSO / staurosporine; higher = more efficacious
Procedure, shortened: as §1

[43] = system: SUDIPGXIII; experiment: as above
Procedure, shortened: as §1

[44] = system: SUDIPGXVII; experiment: as above
Procedure, shortened: as §1

[45] = system: DIPGX7; experiment: EC50 (inflection of fitted growth-inhibition curve) (log10 M)
Procedure, shortened: as §1

[46] = system: DIPGX7; experiment: maximal growth inhibition (yFin) relative to DMSO / staurosporine; higher = more efficacious
Procedure, shortened: as §1

Compound	EC50 (log10 M) [1]	EC50 (log10 M) [3]	EC50 (log10 M) [11]	maximal growth inhibition [12] [%]	maximal growth inhibition [14] [%]	maximal growth inhibition [22] [%]	area under dose-response curve [23]	area under dose-response curve [24]	area under dose-response curve [25]	area under dose-response curve [26]	area under dose-response curve [27]	area under dose-response curve [28]	area under dose-response curve [29]	area under dose-response curve [30]	area under dose-response curve [31]	area under dose-response curve [32]	area under dose-response curve [33]	area under dose-response curve [34]	area under dose-response curve [35]	area under dose-response curve [36]	further results
COC(=O)Nc1nc2cc(C(=O)c3ccccc3)ccc2[nH]1 [MEBENDAZOLE]	-5.94	-6.45	-5.58	28.1	31.4	63.1	47.3	93.5	71	90	246	80.6	38.7	73.2	20.7	27.4	30.4	53.6	94.4	17.5	EC50 (log10 M) [2]: -5.91; EC50 (log10 M) [4]: -6.44; EC50 (log10 M) [5]: -6.53; EC50 (log10 M) [6]: -6.45; EC50 (log10 M) [7]: -6.61; EC50 (log10 M) [8]: -5.51; EC50 (log10 M) [9]: -6.23; EC50 (log10 M) [10]: -6.7; maximal growth inhibition [13]: 47.6%; maximal growth inhibition [15]: 36.9%; maximal growth inhibition [16]: 98.3%; maximal growth inhibition [17]: 32.9%; maximal growth inhibition [18]: 28.5%; maximal growth inhibition [19]: 22.1%; maximal growth inhibition [20]: 25.1%; maximal growth inhibition [21]: 36.4%; area under dose-response curve [37]: 93.5; area under dose-response curve [38]: 40.1
CC(=O)Nc1cccc(-n2c(=O)n(C3CC3)c(=O)c3c(Nc4ccc(I)cc4F)n(C)c(=O)c(C)c32)c1 [TRAMETINIB]	-4.63	-7.25	-6.66	32.2	106	26.3	19	96.1	345	334	358	162	51.4	74.7	29.4	47.4	62.1	176	299	173	EC50 (log10 M) [4]: -7.37; EC50 (log10 M) [5]: -7.93; EC50 (log10 M) [6]: -6.03; EC50 (log10 M) [39]: -4.9; EC50 (log10 M) [7]: -5.15; EC50 (log10 M) [9]: -7.25; EC50 (log10 M) [10]: -7.38; EC50 (log10 M) [40]: -7.34; EC50 (log10 M) [41]: -6.86; maximal growth inhibition [15]: 99.2%; maximal growth inhibition [16]: 91.1%; maximal growth inhibition [17]: 78.3%; maximal growth inhibition [42]: 46.1%; maximal growth inhibition [18]: 53.5%; maximal growth inhibition [20]: 54.2%; maximal growth inhibition [21]: 88.3%; maximal growth inhibition [43]: 42.5%; maximal growth inhibition [44]: 47.3%; area under dose-response curve [37]: 66.9; area under dose-response curve [38]: 135
CC[C@]1(O)C[C@H]2CN(CCc3c([nH]c4ccccc34)[C@@](C(=O)OC)(c3cc4c(cc3OC)N(C=O)[C@H]3[C@@](O)(C(=O)OC)[C@H](OC(C)=O)[C@]5(CC)C=CCN6CC[C@]43[C@@H]65)C2)C1 [VINCRISTINE]	-5.97	-6.46	-6.56	61.4	98.2	101	127	345	253	292	606	200	103	152	212	99.2	256	163	189	123	EC50 (log10 M) [2]: -7.75; EC50 (log10 M) [39]: -4.84; EC50 (log10 M) [45]: -5.71; EC50 (log10 M) [8]: -7.28; EC50 (log10 M) [40]: -5.77; maximal growth inhibition [13]: 92.8%; maximal growth inhibition [42]: 97.3%; maximal growth inhibition [46]: 95.3%; maximal growth inhibition [19]: 77.9%; maximal growth inhibition [43]: 64%; area under dose-response curve [37]: 284; area under dose-response curve [38]: 187
